According to PMC7400457, “Profiling and Identification of Omeprazole Metabolites in Mouse Brain and Plasma by Isotope Ratio-Monitoring Liquid Chromatography-Mass Spectrometric Method” (Life, 2020):
Like-named read-outs stand apart in the source and are kept apart here. Values belong to the molecule of their own block, whether it stands above or below them.

Tests used:
[1] = In vivo metabolite identification (MetID) after concomitant omeprazole/D3-omeprazole administration, mouse plasma and brain; set-up: species or system Male ICR mice; key to D, i.p. route (brain): found / not found / E, i.v. route (brain): found / not found / F, p.o. route (brain): found / not found / A, i.p. route (plasma): found / not found / B, i.v. route (plasma): found / not found / C, p.o. route (plasma): found / not found: O, found; -, not found; settings: for D, i.p. route (brain): found / not found / A, i.p. route (plasma): found / not found: 50 mg/kg omeprazole/D3-omeprazole 1:1, i.p.; for D, i.p. route (brain): found / not found / E, i.v. route (brain): found / not found / F, p.o. route (brain): found / not found: mouse brain; for A, i.p. route (plasma): found / not found / B, i.v. route (plasma): found / not found / C, p.o. route (plasma): found / not found: mouse plasma; for E, i.v. route (brain): found / not found / B, i.v. route (plasma): found / not found: 50 mg/kg omeprazole/D3-omeprazole 1:1, i.v.; for samples (matrix/route) in which the metabolite was observed: 50 mg/kg omeprazole/D3-omeprazole 1:1, mice; for F, p.o. route (brain): found / not found / C, p.o. route (plasma): found / not found: 50 mg/kg omeprazole/D3-omeprazole 1:1, p.o.
Protocol: The LC–QTOF-MS system was consisted of a chromatographic pump system (Shimadzu CBM–20A/LC–20AD, Shimadzu Scientific Instruments, Riverwood Dr, Columbia, SC, USA), an auto-sampler system (Eksigent CTC HTS PAL, Sciex, Redwood City, CA, USA), equipped with a mass spectrometer (TripleTOF^TM 5600, Sciex, Redwood City, CA, USA). Chromatographic separation was performed using reversed-phase C18 columns (Phenomenex® Kinetex XB–C18 column; 2.1 × 50 mm for bioanalytical sample quantification and 2.1 × 100 mm for MetID). The HPLC mobile phase was comprised of distilled/deionized water containing 0.1% formic acid (phase A) and acetonitrile containing 0.1% formic acid (phase B) with a binary gradient program. The LC–gradient was optimized as follows: 3.2 min for the quantification (0–0.5 min, 5% B; 0.5–1.2 min, 5–95% B; 1.2–1.4 min, 95% B; 1.4–1.5 min, 95–5% B; and 1.5–3.2 min, 5% B with a flow rate of 0.4 mL/min) and 23 min for MetID (0–1 min, 5% B; 1–13 min, 5–40% B; 13–13.5 min, 40–45% B; 13.5–15.5 min, 45–90% B; 15.5–17.9 min, 90% B; 17.9–18 min, 90–5% B; and 18–23 min, 5% B with a flow rate of 0.3mL/min). In particular, the LC separation conditions for MetID studies were optimized where the peaks of metabolites were separated as much as possible. This was critical in searching for any relevant metabolites originated from omeprazole with unique isotope ratio 1:1.
The single reaction monitoring at high sensitivity option (SRMHS) in the product ion scan was used for the quantification of PK as well as MetID samples. The information-dependent analysis (IDA) method including high resolution TOF full scan and seven unique information-dependent product ion scans were performed for the MetID study. The ion spray voltage (ISVF) was set at 5500 V. The source gas (nebulizer [GS1, ion source gas1] and heater [GS2, ion source gas2]) was set at 50 psi, and the source temperature was set at 500 °C with the curtain gas (CUR) flow of […].
A separate in vivo MetID study was conducted. A total of 50 mg/kg (1:1 ratio of omeprazole and D3–omeprazole) was given through each administration route (p.o., i.v. and i.p.). After administration, blood and brain tissue sampling was conducted in the same manner as the previous PK studies. The collected samples were stored at −80 °C until analysis.
The plasma samples obtained from the study dosed with 50 mg/kg were collected according to the Hamilton pooling method. The pooled plasma sample (a total of 274 μL) was transferred to a clean tube, and 1 mL of ACN was added. The pretreated samples were centrifuged at 10,000 rpm for 5 min, and 1100 μL of the supernatant was evaporated to dryness under vacuum in a centrifugal evaporator (CVE–3110, Eyela, Tokyo, Japan) connected to cold trap (UT–1000, Eyela, Tokyo, Japan). The dried residue was re-constituted, shaken and centrifuged. After centrifugation, the supernatant was transferred to an LC–vial for analysis.
The metabolites of omeprazole were investigated using an LC–QTOF–MS assay. […] In this case, any metabolites having a mass difference of 3 daltons between omeprazole and its stable isotope D3–omeprazole were thoroughly searched as possible drug-related metabolites.

[2] = Pharmacokinetic study of omeprazole in mice after i.v., i.p. and p.o. administration (plasma and brain, LC-QTOF-MS); format: in vivo, Male ICR mice; settings: 10 mg/kg; for Kp: brain/plasma; for bioavailability: read-out: BA (bioavailability)
Protocol: Omeprazole formulation was freshly prepared on the day of experiment. Mice were randomly distributed into three different groups (twelve mice per group; p.o. group, i.v. group and i.p. group) and received 10 mg/kg of omeprazole. […] Blood was drawn into the heparinized tubes through cardiac puncture and was immediately centrifuged at 10,000 rpm for 5 min. The supernatant of the centrifuged samples was transferred to the clean tubes and stored at −80 °C until analysis. […] The homogenized samples were stored at −80 °C until usage. • Plasma samples: Ten microliters of the mouse plasma samples were placed in cluster tubes. […] Hundred microliters of ACN containing internal standard (ISTD, verapamil) was added to each sample for extraction. The mixture was capped, gently shaken for approximately 1 min and then was centrifuged for 5 min at 10,000 rpm (4 °C). Following the centrifugation, 50 μL supernatant was transferred to a clean test tube and was diluted with 100 μL of distilled water. […] Ten microliters of the mouse brain homogenate were placed in cluster tubes. […] Hundred microliters of ACN containing internal standard (ISTD, verapamil) was added to each sample for extraction. The mixture was capped, gently shaken for approximately 1 min and then centrifuged for 5 min at 10,000 rpm (4 °C). Following the centrifugation, 50 μL supernatant was transferred to a clean test tube and was diluted with 100 μL of distilled water. The resulting mixture was then transferred to an LC-vial, and 10 μL was injected to the LC–QTOF–MS. • Standard (STD) and quality control (QC) samples: […] The mixture was capped, gently shaken for approximately 1 min and then centrifuged for 5 min at 10,000 rpm (4 °C). Following the centrifugation, 50 μL supernatant was transferred to a clean test tube and was diluted with 100 μL of distilled water. The resulting mixture was then transferred to an LC–vial, and 10 μL was injected to the LC–QTOF–MS. Data acquisition and LC–QTOF-MS operation was conducted using Analyst® TF Version 1.6 (Sciex). MultiQuant® Version 2.1.1 (Sciex) was used for the peak integration of omeprazole for quantification. PeakView® Version 2.2 and MetabolitePilot^TM Version 2.0.2 were used for the structural elucidation of omeprazole metabolites. Pharmacokinetic parameters were calculated in a non-compartmental analysis using WinNonlin® version 8.0.0 (Certara, Princeton, NJ, USA). The developed LC–QTOF-MS method was successfully applied to determine the PK parameters after i.v., i.p. and p.o. administration at a dose level of 10 mg/kg each for omeprazole in mice. During the sample preparation of the PK samples, QC samples were included for the assurance of the bioanalytical run. All the PK samples were within the range of the qualified calibration range (3.02~6670 ng/mL). Final concentrations were calculated by considering the dilution factors (e.g., 4× and 2× of the concentrations obtained from the brain and plasma, respectively). Each PK parameters were measured by non-compartmental analysis using WinNonlin (version 8.0.0). […] (Kp) = AUCbrain/AUCplasma(1)

D, i.p. route (brain): found / not found [1]: - | A, i.p. route (plasma): found / not found [1]: O | E, i.v. route (brain): found / not found [1]: - | B, i.v. route (plasma): found / not found [1]: O | F, p.o. route (brain): found / not found [1]: - | C, p.o. route (plasma): found / not found [1]: -
SMILES: COc1ccc2[nH]c(SCC(NC(C)=O)C(=O)O)nc2c1 (stereo not shown) [Metabolite M1]
samples (matrix/route) in which the metabolite was observed [1]: plasma–IV route and plasma-IP route samples

D, i.p. route (brain): found / not found [1]: O | A, i.p. route (plasma): found / not found [1]: O | E, i.v. route (brain): found / not found [1]: O | B, i.v. route (plasma): found / not found [1]: O | F, p.o. route (brain): found / not found [1]: - | C, p.o. route (plasma): found / not found [1]: O
SMILES: COc1c(C)cnc(C[S+]([O-])c2nc3cc(O[C@@H]4O[C@H](C(=O)O)[C@@H](O)[C@H](O)[C@H]4O)ccc3[nH]2)c1C (stereo partly shown) [Metabolite M2]
samples (matrix/route) in which the metabolite was observed [1]: all samples except the brain–PO route sample

D, i.p. route (brain): found / not found [1]: O | A, i.p. route (plasma): found / not found [1]: O | E, i.v. route (brain): found / not found [1]: O | B, i.v. route (plasma): found / not found [1]: O | F, p.o. route (brain): found / not found [1]: O | C, p.o. route (plasma): found / not found [1]: O
SMILES: COc1ccc2[nH]c([S+]([O-])Cc3ncc(C)cc3C)nc2c1 (stereo not shown) [Metabolite M11]
samples (matrix/route) in which the metabolite was observed [1]: all plasma samples (all dosing routes) and all brain samples (all dosing routes)

D, i.p. route (brain): found / not found [1]: O | A, i.p. route (plasma): found / not found [1]: O | E, i.v. route (brain): found / not found [1]: O | B, i.v. route (plasma): found / not found [1]: O | F, p.o. route (brain): found / not found [1]: O | C, p.o. route (plasma): found / not found [1]: O
SMILES: COc1ccc2nc(S(=O)(=O)Cc3ncc(C)c(OC)c3C)[nH]c2c1 [Metabolite M14, omeprazole sulfone]
samples (matrix/route) in which the metabolite was observed [1]: all plasma samples (all dosing routes) and all brain samples (all dosing routes)

D, i.p. route (brain): found / not found [1]: O | A, i.p. route (plasma): found / not found [1]: O | E, i.v. route (brain): found / not found [1]: O | B, i.v. route (plasma): found / not found [1]: O | F, p.o. route (brain): found / not found [1]: O | C, p.o. route (plasma): found / not found [1]: O
SMILES: COc1ccc2[nH]c(SCc3ncc(C)c(OC)c3C)nc2c1 [Metabolite M15, omeprazole sulfide]
samples (matrix/route) in which the metabolite was observed ([1]; 50 mg/kg): all plasma samples (all dosing routes) and all brain samples (all dosing routes)

D, i.p. route (brain): found / not found [1]: O | A, i.p. route (plasma): found / not found [1]: - | E, i.v. route (brain): found / not found [1]: O | B, i.v. route (plasma): found / not found [1]: - | F, p.o. route (brain): found / not found [1]: - | C, p.o. route (plasma): found / not found [1]: -
SMILES: COc1c(C)cnc(CSc2nc3cc(O)ccc3[nH]2)c1C [Metabolite M17]
samples (matrix/route) in which the metabolite was observed [1]: only from the brain–IP route and brain–IV route

D, i.p. route (brain): found / not found [1]: O | A, i.p. route (plasma): found / not found [1]: O | E, i.v. route (brain): found / not found [1]: O | B, i.v. route (plasma): found / not found [1]: O | F, p.o. route (brain): found / not found [1]: O | C, p.o. route (plasma): found / not found [1]: O
SMILES: COc1ccc2[nH]c([S+]([O-])Cc3ncc(C)c(OC)c3C)nc2c1 (stereo not shown) [Omeprazole]
brain-to-plasma partition coefficient (Kp) = AUCbrain/AUCplasma ([2]; i.p., AUClast): 0.0681 | Kp ([2]; male, ICR, mouse, ip, i.p., AUClast, read-out: brain-to-plasma partition coefficient (Kp) = AUCbrain/AUCplasma): 0.068 | Kp ([2]; male, ICR, mouse, ip, i.p., read-out: Brain/Plasma Ratio): 0.0681 | Kp ([2]; male, ICR, mouse, iv, i.v., AUClast, read-out: brain-to-plasma partition coefficient (Kp) = AUCbrain/AUCplasma): 0.15 | Kp ([2]; male, ICR, mouse, iv, i.v., read-out: Brain/Plasma Ratio): 0.147 | Kp ([2]; male, ICR, mouse, po, p.o., AUClast, read-out: brain-to-plasma partition coefficient (Kp) = AUCbrain/AUCplasma): 0.064 | Kp ([2]; male, ICR, mouse, po, p.o., read-out: Brain/Plasma Ratio): 0.0643 | AUC(0-t) ([2]; male, ICR, mouse, ip, brain): 72.8 ng·h/mL | half-life ([2]; male, ICR, mouse, ip, brain): 51.3 min | AUC(0-t) ([2]; male, ICR, mouse, ip, plasma): 1070 ng·h/mL | Cmax ([2]; male, ICR, mouse, ip, plasma): 4890 ng/mL | half-life ([2]; male, ICR, mouse, ip, plasma): 28.8 min | AUC(0-t) ([2]; male, ICR, mouse, iv, brain): 652 ng·h/mL | half-life ([2]; male, ICR, mouse, iv, brain): 48.2 min | AUC(0-t) ([2]; male, ICR, mouse, iv, plasma): 4440 ng·h/mL | Cmax ([2]; male, ICR, mouse, iv, plasma): 67600 ng/mL | Vd ([2]; male, ICR, mouse, iv, plasma): 1.49 L/kg | clearance ([2]; male, ICR, mouse, iv, plasma): 37.8 mL/min/kg | half-life ([2]; male, ICR, mouse, iv, plasma): 27.4 min | bioavailability ([2]; male, ICR, mouse, plasma, ip): 24.1% | bioavailability ([2]; male, ICR, mouse, plasma, po): 5.31% | AUC(0-t) ([2]; male, ICR, mouse, po, brain): 15.2 ng·h/mL | Cmax ([2]; male, ICR, mouse, po, brain): 37.8 ng/mL | half-life ([2]; male, ICR, mouse, po, brain): 44.6 min | AUC(0-t) ([2]; male, ICR, mouse, po, plasma): 236 ng·h/mL | Cmax ([2]; male, ICR, mouse, po, plasma): 610 ng/mL | half-life ([2]; male, ICR, mouse, po, plasma): 54.8 min | brain-to-plasma partition coefficient (Kp) = AUCbrain/AUCplasma ([2]; p.o., AUClast): 0.0643
